{"source": "patent US8618068B2", "about": "“Methods and low dose regimens for treating red blood cell disorders” (priority 2009, dated 2013)", "key": {"hERG channels": {"target": "T1, hERG channels (Homo sapiens, UniProt Q12809)", "T1 construct": "expressed in transfected cells", "T1 sequence (Q12809 whole entry)": "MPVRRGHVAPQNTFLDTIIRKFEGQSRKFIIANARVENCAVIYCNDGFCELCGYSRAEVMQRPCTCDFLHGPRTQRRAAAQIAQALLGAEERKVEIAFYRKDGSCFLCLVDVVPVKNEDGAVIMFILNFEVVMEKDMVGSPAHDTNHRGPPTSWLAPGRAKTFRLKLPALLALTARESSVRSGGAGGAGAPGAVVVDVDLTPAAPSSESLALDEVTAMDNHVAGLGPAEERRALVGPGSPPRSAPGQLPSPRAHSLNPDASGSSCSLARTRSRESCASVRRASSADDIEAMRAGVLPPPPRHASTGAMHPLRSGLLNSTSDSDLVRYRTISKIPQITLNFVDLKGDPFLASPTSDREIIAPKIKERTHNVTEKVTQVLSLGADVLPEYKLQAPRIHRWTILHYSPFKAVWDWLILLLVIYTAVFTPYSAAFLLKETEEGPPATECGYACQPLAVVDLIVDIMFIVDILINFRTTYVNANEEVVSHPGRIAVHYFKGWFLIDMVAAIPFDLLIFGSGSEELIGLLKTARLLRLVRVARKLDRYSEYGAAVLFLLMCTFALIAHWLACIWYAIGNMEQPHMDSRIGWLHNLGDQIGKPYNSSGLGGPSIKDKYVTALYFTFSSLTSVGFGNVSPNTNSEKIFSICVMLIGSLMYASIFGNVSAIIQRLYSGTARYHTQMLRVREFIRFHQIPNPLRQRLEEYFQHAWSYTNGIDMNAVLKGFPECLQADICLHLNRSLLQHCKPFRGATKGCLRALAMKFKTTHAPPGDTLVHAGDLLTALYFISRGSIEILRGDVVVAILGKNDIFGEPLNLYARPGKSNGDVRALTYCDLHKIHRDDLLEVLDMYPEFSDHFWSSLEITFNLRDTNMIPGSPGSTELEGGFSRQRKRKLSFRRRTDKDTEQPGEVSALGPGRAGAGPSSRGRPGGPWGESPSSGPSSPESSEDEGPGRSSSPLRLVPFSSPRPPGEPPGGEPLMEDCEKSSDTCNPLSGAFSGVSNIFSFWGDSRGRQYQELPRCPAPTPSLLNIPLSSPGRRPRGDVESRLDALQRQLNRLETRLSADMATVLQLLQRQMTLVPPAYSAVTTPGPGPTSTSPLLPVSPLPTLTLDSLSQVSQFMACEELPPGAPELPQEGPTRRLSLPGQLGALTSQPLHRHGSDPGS", "assay": "hERG channel, voltage-clamped human embryonic kidney cells", "format": "cell-based", "settings": "concentrations up to 1 mM (138 μg/mL)", "description": "(§1) Cardiovascular safety pharmacology assessments included an in vitro screen to evaluate the effects of DMB on cardiac ion channel and an in vivo evaluation of cardiovascular and hemodynamic effects in Beagle dogs. Electrophysiologic effects were evaluated in laboratory studies utilizing voltage-clamped human embryonic kidney cells transformed by adenovirus cDNA and transfected with cDNA in order to stably express the human ether a-go-go related gene (hERG). The effect on cellular hERG channels was evaluated at DMB concentrations up to 1 mM (138 μg/mL)."}, "[1]": {"tested_on": "micronucleated erythrocytes (PCEs)", "settings": "rat, in vivo", "description": "The potential for DMB to induce formation of micronuclei in vivo was evaluated as part of the initial 14-Day toxicity repeat dose toxicity study in rats administered doses of 0, 200, 600 and 1,000 mg/kg/day for 14 days."}, "[2]": {"assay": "Cardiovascular and hemodynamic effects, 28-Day Beagle dog study", "format": "in vivo, Beagle dogs", "description": "as §1"}, "clinical": {"assay": "clinical", "settings": "human, in vivo", "description": "Patients were monitored every 2 weeks for laboratory studies, physical examinations, and adverse events. Further, patients were followed for hematologic parameters primarily focusing on hemoglobin and fetal hemoglobin (HbF). In addition, pharmacokinetic samples were obtained on Day 0 and 13, at pre-dose and 2, 4, 6, 8, 12, and 24 hours post-dosing. Hemoglobin was measured at each site using standard hematology equipment. HbF was measured using Varian HPLC. […] Adverse events in treated subjects included headache, upper respiratory infection, pyrexia, fatigue, nausea, and dizziness, but the rates of such events were not markedly different from those observed in the placebo-treated subjects.\nA noncompartmental PK analysis was conducted using steady state concentration-time data for Day 13."}, "[3]": {"assay": "Phase 1 repeat-dose clinical study, pharmacokinetics", "format": "in vivo, human", "settings": "for AUC(0-t): read-out: AUC0-24", "description": "DMB was evaluated in a phase 1, placebo-controlled, randomized, repeat dose clinical study that evaluated tolerability, safety, and pharmacokinetics in healthy volunteers. A total of 41 subjects (31 receiving active drug and 10 receiving placebo) completed 14 consecutive days of study medication at daily dose levels of 5, 10 or 15 mg/kg (10 subjects received placebo). Given the importance of iron in red blood cell production, and the requirement for iron supplementation for induction of HbF with other erythropoietic agents, subjects at all 3 dose levels received oral ferrous gluconate on the study medication days. DMB was administered with food to all but one group (5 mg/kg, cohort 1). Subjects were admitted and observed for 24 hours following initial dosing. Thereafter, the study drug was taken once per day at home, except for the last study day. The subjects were monitored weekly for 6 weeks. Thirty-seven subjects completed the study and 4 subjects dropped out due to conflicts. Safety and PK data are available on these subjects.\nThe treatment groups included: Cohort 1: 5 mg/kg fasting, 6 active, 2 placebo; Cohort 2: 5 mg/kg with food, 7 active, 2 placebo (3 drop outs); Cohort 3: 5 mg/kg with food and iron supplements, 6 active, 2 placebo (1 drop out); Cohort 4: 10 mg/kg with food and iron supplements, 6 active, 2 placebo; and Cohort 5: 15 mg/kg with food and iron supplements, 6 active, 2 placebo. Subjects in Cohorts 3, 4, and 5 received a single daily dose of ferrous gluconate (325 mg). The iron supplement was administered to evaluate study medication tolerability when taken with iron. No subjects discontinued due to AEs or safety concerns. Fewer subjects reported an event in the highest dose cohort following eating a meal ([…]) than were reported in the lower dose cohorts ([…], 5 and 10 mg/kg).\nPharmacokinetic (PK) analyses of individual subject plasma concentration-time data were conducted for Day 0 (first dose) and Day 13 (at steady-state) in the multi-dose study. […] Analysis of PK data has shown that plasma drug levels >20 ug/mL persist for greater than 10 hours at the 10 and 15 mg/kg dose levels."}, "absolute reticulocytes": {"tested_on": "absolute reticulocytes", "assay": "Phase 1 repeat-dose clinical study, absolute reticulocytes", "format": "in vivo, human", "description": "Mean absolute reticulocytes (10^9 cells/L) in the placebo group at baseline and Day 27 were 51+/−12 and 62+/−20, respectively, which was not statistically significant (p=0.19). Mean absolute reticulocytes increased on average from 50% to 60% above the mean baseline values in the subjects who received study medication. For example, at baseline in Cohort 1 (5 mg/kg, fasted) mean absolute reticulocytes were 50+/−12 and mean peak reticulocytes were 81+/−24, (p=0.02); in Cohort 4 (10 mg/kg) mean baseline reticulocytes were 58+/−8 and mean peak reticulocytes were 84+/−14, (p=0.003), and in Cohort 5 (15 mg/kg; fed), the mean baseline was 46+/−11 and mean peak level was 72+/−11, a 50% increase (p=0.001)."}, "[4]": {"tested_on": "β- and γ-globin gene promoters", "assay": "Double-luciferase reporter assay of γ-globin expression in GM979 cells", "format": "cell-based, murine", "from_the_text": "DMB was compared to arginine butyrate (AB) for its ability to induce y-globin expression in a double-luciferase reporter assay in murine erythroleukemia (GM979) cells transfected with the pLCR linked to the β- and γ-globin gene promoters linked to a different luciferase gene."}}, "note": "Like-named read-outs stand apart in the source and are kept apart here. Marks after values point to notes of the source that are not given here."}
{"compound": "CCC(C)(C)C(=O)[O-].[Na+]", "note": "[DMB, Sodium 2,2-dimethylbutyrate]", "values": [{"measurement": "activity on hERG channel function", "setting": "hERG channels", "value": "essentially no activity"}, {"measurement": "plasma levels of DMB at which micronucleus activity occurred", "setting": "[1]; male, Sprague Dawley", "value": "exceeding 500 μg/mL"}, {"measurement": "micronucleated PCEs, mean", "setting": "[1]; male, Sprague Dawley, 14 days", "value": "3.3±0.16 MN PCEs/1,000 PCEs"}, {"measurement": "frequency of micronucleated erythrocytes (PCEs) compared to controls", "setting": "[1]", "value": "statistically significant increase"}, {"measurement": "increase in micronucleated PCEs in female groups", "setting": "[1]", "value": "not observed"}, {"measurement": "percent PCEs", "setting": "[1]", "value": "no effect"}, {"measurement": "potential to cause genotoxicity (weight of evidence)", "setting": "[1]", "value": "limited potential to cause genotoxicity"}, {"measurement": "QTc prolongation, average", "setting": "[2]; 500 mg/kg/day, female Beagle dogs only, not statistically different from baseline (p>0.05)", "value": 14, "unit": "%"}, {"measurement": "effects on systemic hemodynamics", "setting": "[2]; 28-Day study", "value": "No effects"}, {"measurement": "Tmax", "setting": "clinical", "value": "2.5 to 3.1", "unit": "h"}, {"measurement": "half-life", "setting": "clinical; 10 mg/kg", "value": 726, "unit": "min"}, {"measurement": "half-life", "setting": "clinical; 40 mg/kg", "value": 618, "unit": "min"}, {"measurement": "time for which plasma drug levels >20 ug/mL persist", "setting": "[3]; 10 and 15 mg/kg dose levels", "value": "greater than 10 hours"}, {"measurement": "time for which targeted plasma drug levels were maintained", "setting": "[3]; 10 and 15 mg/kg dose levels", "value": "more than 10 hours"}, {"measurement": "AUC(0-t)", "setting": "[3]; human, plasma, oral, 5 mg/kg, Day 0, fed, with iron", "value": 226, "unit": "µg·h/mL"}, {"measurement": "Cmax", "setting": "[3]; human, plasma, oral, 5 mg/kg, Day 0, fed, with iron, read-out: mean plasma Cmax", "value": 16300, "unit": "ng/mL"}, {"measurement": "AUC(0-t)", "setting": "[3]; human, plasma, oral, 5 mg/kg, Day 0, without iron", "value": 241, "unit": "µg·h/mL"}, {"measurement": "Cmax", "setting": "[3]; human, plasma, oral, 5 mg/kg, Day 0, without iron, read-out: Average Cmax", "value": 17700, "unit": "ng/mL"}, {"measurement": "Cmax", "setting": "[3]; human, plasma, oral, 5 mg/kg, Day 13, fed, with iron, read-out: Cmax", "value": 24800, "unit": "ng/mL"}, {"measurement": "AUC", "setting": "[3]; human, plasma, oral, 5 mg/kg, Day 13, with iron", "value": 360, "unit": "µg·h/mL"}, {"measurement": "AUC", "setting": "[3]; human, plasma, oral, 5 mg/kg, Day 13, without iron", "value": 312, "unit": "µg·h/mL"}, {"measurement": "Cmax", "setting": "[3]; human, plasma, oral, 5 mg/kg, Day 13, without iron, read-out: Average Cmax", "value": 22400, "unit": "ng/mL"}, {"measurement": "AUC(0-t)", "setting": "[3]; human, plasma, oral, 10 mg/kg, Day 0, fed", "value": 441, "unit": "µg·h/mL"}, {"measurement": "Cmax", "setting": "[3]; human, plasma, oral, 10 mg/kg, Day 0, fed, read-out: mean plasma Cmax", "value": 30600, "unit": "ng/mL"}, {"measurement": "AUC", "setting": "[3]; human, plasma, oral, 10 mg/kg, Day 13", "value": 538, "unit": "µg·h/mL"}, {"measurement": "Cmax", "setting": "[3]; human, plasma, oral, 10 mg/kg, Day 13, read-out: Cmax", "value": 35700, "unit": "ng/mL"}, {"measurement": "AUC(0-t)", "setting": "[3]; human, plasma, oral, 15 mg/kg, Day 0, fed", "value": 697, "unit": "µg·h/mL"}, {"measurement": "Cmax", "setting": "[3]; human, plasma, oral, 15 mg/kg, Day 0, fed, read-out: mean plasma Cmax", "value": 48300, "unit": "ng/mL"}, {"measurement": "AUC", "setting": "[3]; human, plasma, oral, 15 mg/kg, Day 13", "value": 958, "unit": "µg·h/mL"}, {"measurement": "Cmax", "setting": "[3]; human, plasma, oral, 15 mg/kg, Day 13, read-out: Cmax", "value": 67600, "unit": "ng/mL"}, {"measurement": "Tmax", "setting": "[3]; human, plasma, oral, all dose levels, both days, dosing with food", "value": "2.5 to 4.4", "unit": "h"}, {"measurement": "half-life", "setting": "[3]; human, plasma, oral, doses of 10 and 15 mg/kg, read-out: mean T1/2 (converted)", "value": 660, "unit": "min"}, {"measurement": "mean peak reticulocytes", "setting": "absolute reticulocytes; Cohort 1 (5 mg/kg, fasted), baseline 50+/−12, p=0.02", "value": "81+/−24 10^9 cells/L"}, {"measurement": "mean peak reticulocytes", "setting": "absolute reticulocytes; Cohort 4 (10 mg/kg), baseline 58+/−8, p=0.003", "value": "84+/−14 10^9 cells/L"}, {"measurement": "increase of reticulocytes, baseline to peak", "setting": "absolute reticulocytes; Cohort 5 (15 mg/kg; fed)", "value": 50, "unit": "%"}, {"measurement": "mean peak reticulocytes", "setting": "absolute reticulocytes; Cohort 5 (15 mg/kg; fed), baseline 46+/−11, p=0.001", "value": "72+/−11 10^9 cells/L"}, {"measurement": "Mean Fold Increase", "setting": "[4]; 0.5 mM, compared to untreated controls, p ≦ 0.01", "value": "2.2*"}, {"measurement": "γ/(γ + β) globin Expression, Range", "setting": "[4]; Active Concentration 0.5 mM", "value": "0.033-0.052"}]}
